Structures can show the parent of a compound that is named as a salt.
Columns and labels:
[1] = cited from earlier work; for SOLUBILITY (in words): Table 1, water; for SOLUBILITY (parts H2O): Table 1, numeric; for SOL. IN PARTS H2O: Table 2
[2] = test system: antisera to synthetic hTGF-a (1-50); test: RIA for human TGF-a using antisera recognizing the complete, bioactive synthetic hormone; type: binding, rabbit
Procedure: (D) RIA for Human TGF-a Using Antisera Recognizing the Complete, Bioactive Synthetic Hormone Synthesis of hTGF-a (1-50) Peptide and Immunization:
The sequence of human TGF-a as determined by DeRynck et al. (Cell 38:287-297, 1985) was used to synthesize the low molecular weight form of the hormone (residues 1-50) using an automated instrument (Biosearch). The resultant peptide was used to immunize rabbits repeatedly using 0.5 mg of peptide at multiple sites.
The assay used reference standards and radio-iodinated tracer prepared from purified, bioactive synthetic rat TGF-alpha (Peninsula Laboratories, Belmont, Calif.). Label cocktail was prepared by mixing, in 1.5 L total volume, 300 L 10×buffer (0.5 M Hepes, 2 mg/L BSA, 0.2% sodium azide), 600 L 10% nonidet P-40 (Shell Oil Co.), 580 L distilled water, and 30 L of labeled peptide (rTGF-a, 800,000 CPM). The antibody suspension was prepared essentially as described in (A) above. To each 0.4 L tube containg 0.25-0.3 L cushions of butyl phthalate was added 25 L of label cocktail, 50 L of sample, and 25 L of antibody suspension. Where indicated, 10 L of 1M DTT (freshly dissolved in 0.5M sodium bicarbonate) was added to each assay mixture. After mixing, the tubes were incubated overnight at 4° C., then processed as described in (A) except that the detection instrument was a gamma counter (Abbott Model 200).

[3] = test system: anti-fragment antisera (rat TGF-a c-terminal peptide); test: TGF-a RIA: bioactive peptides & methyl cinnamate cushions; type: binding, rabbit
Procedure: (§1) All assays employed as assay vessels 0.4 L microcentrifuge tubes containing 0.25-0.3 L of cushion material. Labeled peptide was produced by chloramine Tiodination (specific activity ranged from 200-500 Ci/g). Unless otherwise specified, all solid phases were prepared using S. aureus suspensions. Centrifugations were for 30-60 seconds in a microcentrifuge at approximately 10,000×g.
(§2) (B) RIA Using Anti-Fragment Antisera and Bioactive Syntheticpeptide as Tracer and Reference Standard, with Methylcinnamate Cushions and Assay Reactants Predispensed.
(§3) Trans-methyl cinnamate (Table 1, item 11, Aldrich Chemical Co., St. Louis, Mo.) was melted by brief heating in a microwave oven just prior to dispensing into assay vessels. The cushion solidified spontaneously at room temperature. The solid phase was prepared as in (A) above in double strength assay buffer (including 4% NP-40 nonionic detergent). This suspension was stable at 4° C. for at least one year. Label cocktail (1.5 L) was prepared using 0.3 L 10×assay buffer (minus nonionic detergent), 0.6 L 10% NP-40, 0.58 L distilled water, and 30 L label concentrate (600,000 CPM) prepared from bioactive synthetic rat TGF-alpha (res. 1-50).
(§4) Into each assay was loaded 50 L of reference standard sample (bioactive, synthetic rat TGF-alpha, res. 1-50), 25 L of label cocktail, followed by 25 L of solid phase suspension. Where indicated, all assay reactants were predispensed and equilibrated for at least 3 days at 4 C prior to initiation of the assay by sample addition and mixing. After the indicated incubation periods, assay vessels were centrifuged and counted using radiation shields (FIG. 3, lacking disk 52) in an gamma counter (Abbott Model 200).
Two temperature and mixing treatments were compared with four incubation times. One treatment consisted of incubating at 32° C., just below the melting temperature of the cushion, and mixing at 15 minute intervals. The second treatment consisted of incubating at 40° C., above the melting temperature of the cushion, with mixing only at initiation of incubation (prior to warming). Both assays yielded low nonspecific binding, high specific binding, and high competition with reference standards, even after only 30 minutes of incubation.

[4] = test system: anti-fragment antisera (rat TGF-a c-terminal peptide); test: TGF-a RIA: predispensed reactants & methyl cinnamate cushions; type: binding, rabbit
Procedure: as §1, §2, §3, §4

anti-digoxin antibody = test: Enzyme immunoassay for digoxin; type: binding, rabbit
Excerpt: An enzyme-labelled digoxin assay using the method of the present invention is adapted from a commercial digoxin kit (Immunotech, Allston, Mass.). The only changes in reagents are the inclusion of 20% sorbitol in the color developer solution, and the substitution of 50 microliters of Tachisorb-R (Behring Diagnostics, La Jolla, Calif.) for the 500 microliters of precipitating solution (goat-anti rabbit IgG) provided with the kit.
In two mL, screw-top microcentrifuge tubes (Sarstedt, Princeton, N.J.), 1 mL of sorbitol-color developer is dispensed, then overlaid with 0.4 mL of dibutyl phthalate. A 200 microliter assay mixture is prepared by adding 100 microliters of Tachisorb-R, 25 microliters of digoxin-enzyme (alkaline phosphatase) conjugate, 25 microliters of sample (serum-based standards), and 50 microliters of antibody solution. The assay is incubated at room temperature for 15 minutes, centrifuged two minutes at 10,000×g, and further incubated one hour for color development.
Color is measured at 400 nm in a Shimadzu Model UV-160 spectrophotometer. Because of the opacity of the polypropylene tubes, results for each tube are corrected for nonspecific absorbance at 500 nm.

[5] = REDUCED WITH DTT, 1.25 nM in assay

For `CC(O)CO` (stereo not drawn) [PROPYLENE GLYCOL], the miscibility ([1]; Table 2 comment) is given as “MISC WITH H2O, CHCL3”.

For “RTGF, BIOACTIVE: purified, bioactive synthetic rat TGF-alpha (Peninsula Laboratories)”, the “PERCENTAGE OF MAXIMAL BINDING, corrected for nonspecific binding” value (from here on “PERCENTAGE OF MAXIMAL BINDING, corrected”) ([2]; REDUCED WITH DTT, 0.15 nM in assay) was 93.8%, the “PERCENTAGE OF MAXIMAL BINDING, corrected” value ([2]; REDUCED WITH DTT, 0.32 nM in assay) was 87.1% and the “PERCENTAGE OF MAXIMAL BINDING, corrected” value ([2]; REDUCED WITH DTT, 0.62 nM in assay) was 79.9%. The “PERCENTAGE OF MAXIMAL BINDING, corrected” value [2, 5] was 74.4%, the “PERCENTAGE OF MAXIMAL BINDING, corrected” value ([2]; REDUCED WITH DTT, 2.50 nM in assay) was 64.9% and the “PERCENTAGE OF MAXIMAL BINDING, corrected” value ([2]; REDUCED WITH DTT, 5.00 nM in assay) was 47.3%. For the same compound, the “PERCENTAGE OF MAXIMAL BINDING, corrected” value ([2]; UNREDUCED, 0.15 nM in assay) was 83.2%, the “PERCENTAGE OF MAXIMAL BINDING, corrected” value ([2]; UNREDUCED, 0.32 nM in assay) was 77.3% and the “PERCENTAGE OF MAXIMAL BINDING, corrected” value ([2]; UNREDUCED, 0.62 nM in assay) was 68.5%. The “PERCENTAGE OF MAXIMAL BINDING, corrected” value ([2]; UNREDUCED, 1.25 nM in assay) was 58.5%, the “PERCENTAGE OF MAXIMAL BINDING, corrected” value ([2]; UNREDUCED, 2.50 nM in assay) was 54.0% and the “PERCENTAGE OF MAXIMAL BINDING, corrected” value ([2]; UNREDUCED, 5.00 nM in assay) was 45.7%.

For `COC(=O)c1ccco1` [METHYL FUROATE], the “SOLUBILITY (in words)” value [1] is listed as “SLIGHTLY”.

In the case of `CCOC(=O)C=Cc1ccccc1` [ETHYL CINNAMATE], the “SOLUBILITY (in words)” value [1] is given as “INSOL”.

For `COC(=O)c1ccccc1` [METHYL BENZOATE], the “SOLUBILITY (in words)” value [1] is listed as “INSOL”.

For `CCCCOC(=O)CC(O)(CC(=O)OCCCC)C(=O)OCCCC` [BUTYL CITRATE], the “SOLUBILITY (in words)” value [1] is listed as “INSOL”.

For `CCCCOC(=O)C=Cc1ccccc1` [BUTYL CINNAMATE], the “SOLUBILITY (parts H2O)” value [1] is listed as 200 parts H2O.

With “synthetic rat TGF-alpha: bioactive, synthetic rat TGF-alpha, res. 1-50” the “% bound with 0.3 nM sample” value ([3]; 30 minutes, 32 C) was 21.9%, the “% bound with 10 nM sample” value ([3]; 30 minutes, 32 C) was 5.6% and the “% bound with 0.3 nM sample” value ([3]; 30 minutes, 40 C) was 23.8%. The “% bound with 10 nM sample” value ([3]; 30 minutes, 40 C) was 6.9%, the “% bound with 0.3 nM sample” value ([3]; 60 minutes, 32 C) was 25.2% and the “% bound with 10 nM sample” value ([3]; 60 minutes, 32 C) was 6.2%. For the same compound, the “% bound with 0.3 nM sample” value ([3]; 60 minutes, 40 C) was 29.4%, the “% bound with 10 nM sample” value ([3]; 60 minutes, 40 C) was 7.1% and the “% bound with 0.3 nM sample” value ([3]; 90 minutes, 32 C) was 26.2%. For the same compound, the “% bound with 10 nM sample” value ([3]; 90 minutes, 32 C) was 6.4%, the “% bound with 0.3 nM sample” value ([3]; 90 minutes, 40 C) was 32.9% and the “% bound with 10 nM sample” value ([3]; 90 minutes, 40 C) was 7.6%. For the same compound, the “% bound with 0.3 nM sample” value ([3]; 120 minutes, 32 C) was 25.6%, the “% bound with 10 nM sample” value ([3]; 120 minutes, 32 C) was 6.1% and the “% bound with 0.3 nM sample” value ([3]; 120 minutes, 40 C) was 35.8%. For the same compound, the “% bound with 10 nM sample” value ([3]; 120 minutes, 40 C) was 7.6%, the “label bound, CPM” value ([4]; 2.5 nM sample competition, total CPM = 7872) was 642 CPM and the “% OF MAX. BOUND” value ([4]; 2.5 nM sample, 120 minutes, 37 C) was 48.6%. For the same compound, the “LABEL BOUND” value ([4]; 2.5 nM sample, 120 minutes, 37 C, N = 6) was 8.2%.

For `COC(=O)C(=O)OC` [DIMETHYL OXALATE], the “SOLUBILITY (parts H2O)” value [1] is listed as 17 parts H2O.

For `CCCCOC(=O)c1ccccc1C(=O)OCCCC` [DIBUTYL PHTHALATE], the “SOLUBILITY (parts H2O)” value [1] is given as 2500 parts H2O.

For `[Cl-].[Li+]` [LITHIUM CHLORIDE], the “SOL. IN PARTS H2O” value [1] is given as 1.3 PARTS H2O.

For `CCOC(=O)[C@H](O)[C@@H](O)C(=O)OCC` [DIETHYL L-TARTRATE], the “SOLUBILITY (in words)” value [1] is given as “slightly”.

For `[Br-].[Li+]` [LITHIUM BROMIDE], the “SOL. IN PARTS H2O” value [1] is given as “.6 PARTS H2O”.

In the case of “BIOLOGICAL TGFALPHA: BIOLOGICAL TGFALPHA, PARTIALLY PURIFIED FROM CULTURE FLUIDS (A375 CELLS)”, the “PERCENTAGE OF MAXIMAL BINDING, corrected” value [2, 5] was 63.3% and the “PERCENTAGE OF MAXIMAL BINDING, corrected” value ([2]; UNREDUCED, 1.25 nM in assay) was 89.7%.

In the case of `CCOC(=O)CC(=O)c1ccccc1` [ETHYL BENZOYLACETATE], the “SOLUBILITY (in words)” value [1] is listed as “INSOL”.

For `C[C@H]1O[C@@H](O[C@H]2[C@@H](O)C[C@H](O[C@H]3[C@@H](O)C[C@H](O[C@H]4CC[C@@]5(C)[C@H](CC[C@@H]6[C@@H]5C[C@@H](O)[C@]5(C)[C@@H](C7=CC(=O)OC7)CC[C@]65O)C4)O[C@@H]3C)O[C@@H]2C)C[C@H](O)[C@@H]1O` [digoxin], the “ABSORBANCE AT 400 nm (corrected)” value (anti-digoxin antibody; sample 1.0) was 150, the “ABSORBANCE AT 400 nm (corrected)” value (anti-digoxin antibody; sample 2.0) was 100 and the “ABSORBANCE AT 400 nm (corrected)” value (anti-digoxin antibody; sample 4.0) was 80.

For `CCOC(=O)/C=C\C(=O)OCC` [DIETHYL MALEATE], the “SOLUBILITY (in words)” value [1] is listed as “INSOL”.

In the case of `COC(=O)c1ccccc1C(=O)OC` [DIMETHYL PHTHALATE], the “SOLUBILITY (parts H2O)” value [1] is given as 232 parts H2O.

In the case of `CCOC(=O)CC(=O)C(=O)OCC` [ETHYL OXALACETATE], the “SOLUBILITY (in words)” value [1] is listed as “INSOL”.

For `CCOC(=O)CC(=O)OCC` [DIETHYL MALONATE], the “SOLUBILITY (parts H2O)” value [1] is listed as 50 parts H2O.

In the case of `COC(=O)CCC(=O)OC` [DIMETHYL SUCCINATE], the “SOLUBILITY (parts H2O)” value [1] is given as 120 parts H2O.

In the case of `COC(=O)c1ccccc1O` [METHYL SALICYLATE], the “SOLUBILITY (parts H2O)” value [1] is listed as 1500 parts H2O.

In the case of `CCOC(=O)CC(C)=O` [ETHYL ACETOACETATE], the “SOLUBILITY (parts H2O)” value [1] is listed as 35 parts H2O.

For `CCOC(=O)c1ccccc1O` [ETHYL SALICYLATE], the “SOLUBILITY (in words)” value [1] is given as “SLIGHTLY”.

For `COC(=O)/C=C/c1ccccc1` [METHYL CINNAMATE], the “SOLUBILITY (in words)” value [1] is listed as “ALMOST INSOL”.

Reference: US6121055A, “Methods and devices for conducting specific binding assays” (priority 1995, dated 2000)
